Assay results from ChEMBL document CHEMBL3822381, “Design, synthesis, and evaluation of Trolox-conjugated amyloid-β C-terminal peptides for therapeutic intervention in an in vitro model of Alzheimer's disease” (Bioorg Med Chem, 2016).
Active and inactive are the calls of the source. The calls are words filed in the database; no cut-off is given here. Residues, ends and D or L forms follow the SMILES beside them. *: point of attachment. Trolox = Cc1c(C)c2c(c(C)c1O)CCC(C)(C(=O)*)O2

Legend:
[1] = target: Amyloid-beta precursor protein (Homo sapiens) (UniProt P05067); experiment: Inhibition of amyloid beta (1 to 42) (unknown origin) aggregation at 80 uM by ThT-fluorescence assay relative to control
SH-SY5Y [2] = experiment: Neuroprotective activity against amyloid beta (1 to 42)-induced neurotoxicity in human SH-SY5Y cells assessed as increase in cell viability at 5 to 40 uM measured after 48 hrs by WST-8 assay; assay type: functional, cell-based
SH-SY5Y [3] = experiment: Cytotoxicity against human SH-SY5Y cells assessed as cell viability up to 40 uM measured after 48 hrs by WST-8 assay; assay type: cell-based
SH-SY5Y [4] = experiment: Neuroprotective activity against amyloid beta (1 to 42)-induced neurotoxicity in human SH-SY5Y cells assessed as increase in cell viability at 40 uM measured after 48 hrs by WST-8 assay; assay type: functional, cell-based
SH-SY5Y [5] = experiment: Neuroprotective activity against amyloid beta (1 to 42)-induced neurotoxicity in human SH-SY5Y cells assessed as increase in cell viability at 20 uM measured after 48 hrs by WST-8 assay; assay type: functional, cell-based
SH-SY5Y [6] = experiment: Antioxidant activity in human SH-SY5Y cells assessed as inhibition of H2O2-induced ROS production preincubated for 1 day prior H2O2 treatment at 25 uM by DCFH-DA-based fluorescence analysis; assay type: functional, cell-based
SH-SY5Y [7] = experiment: Antioxidant activity against human SH-SY5Y cells assessed as amyloid beta (1 to 42)-induced ROS production preincubated for 1 day prior H2O2 treatment at 1.25 uM by DCFH-DA-based fluorescence analysis relative to control; assay type: functional
SH-SY5Y [8] = experiment: Neuroprotective activity against amyloid beta (1 to 42)-induced neurotoxicity in human SH-SY5Y cells assessed as increase in cell viability measured after 48 hrs by WST-8 assay; assay type: functional, cell-based

Sequence of Amyloid-beta precursor protein (Homo sapiens) (P05067 whole entry): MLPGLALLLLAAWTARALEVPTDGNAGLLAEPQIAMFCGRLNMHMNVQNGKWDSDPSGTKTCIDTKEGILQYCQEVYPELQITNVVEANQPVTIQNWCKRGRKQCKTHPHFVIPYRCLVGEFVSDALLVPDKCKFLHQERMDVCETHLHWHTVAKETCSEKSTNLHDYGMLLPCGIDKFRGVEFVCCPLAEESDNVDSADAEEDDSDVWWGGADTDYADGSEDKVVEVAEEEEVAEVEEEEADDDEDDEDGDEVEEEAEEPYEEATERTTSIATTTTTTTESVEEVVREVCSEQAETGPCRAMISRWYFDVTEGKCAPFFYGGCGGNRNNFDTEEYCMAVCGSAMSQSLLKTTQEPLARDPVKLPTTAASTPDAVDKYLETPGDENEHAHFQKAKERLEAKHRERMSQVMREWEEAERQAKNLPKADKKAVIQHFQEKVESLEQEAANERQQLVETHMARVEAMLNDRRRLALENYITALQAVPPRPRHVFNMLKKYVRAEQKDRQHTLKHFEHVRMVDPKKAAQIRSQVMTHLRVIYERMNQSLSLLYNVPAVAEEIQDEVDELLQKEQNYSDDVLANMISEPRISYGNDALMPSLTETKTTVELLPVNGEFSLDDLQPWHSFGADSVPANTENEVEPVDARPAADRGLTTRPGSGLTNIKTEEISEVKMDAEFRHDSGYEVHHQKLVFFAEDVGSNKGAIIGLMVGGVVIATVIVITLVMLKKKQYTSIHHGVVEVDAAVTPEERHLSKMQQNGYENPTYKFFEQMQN

Compound: CSCC[C@H](NC(=O)[C@H](CC(C)C)NC(=O)C1(C)CCc2c(C)c(O)c(C)c(C)c2O1)C(=O)N[C@H](C(=O)NCC(=O)NCC(=O)N[C@H](C(=O)N[C@H](C(=O)O)C(C)C)C(C)C)C(C)C (stereo partly drawn) (Trolox-LMVGGVV-OH)
- inhibition [1]: inactive

Compound: CC[C@H](C)[C@H](NC(=O)[C@@H](NC(=O)[C@@H](NC(=O)CNC(=O)CNC(=O)[C@@H](NC(=O)[C@H](CCSC)NC(=O)[C@H](CC(C)C)NC(=O)C1(C)CCc2c(C)c(O)c(C)c(C)c2O1)C(C)C)C(C)C)C(C)C)C(=O)N[C@@H](C)C(=O)N[C@H](C(=O)O)[C@@H](C)O (stereo partly drawn) (Trolox-LMVGGVVIAT-OH)
- inhibition [1]: 40.4%

Compound: Cc1c(C)c2c(c(C)c1O)CCC(C)(C(=O)N[C@H](C(=O)O)C(C)C)O2 (stereo partly drawn)
- inhibition [1]: inactive

Compound: CC[C@H](C)[C@H](NC(=O)[C@@H](NC(=O)[C@@H](NC(=O)CNC(=O)C1(C)CCc2c(C)c(O)c(C)c(C)c2O1)C(C)C)C(C)C)C(=O)N[C@@H](C)C(=O)O (stereo partly drawn) (Trolox-GVVIA-OH)
- inhibition [1]: 4.7%

Compound: Cc1c(C)c2c(c(C)c1O)CCC(C)(C(=O)N[C@H](C(=O)NCC(=O)NCC(=O)N[C@H](C(=O)N[C@H](C(=O)O)C(C)C)C(C)C)C(C)C)O2 (stereo partly drawn) (Trolox-VGGVV-OH)
- inhibition [1]: inactive
- Activity (SH-SY5Y [2]): inactive

Compound: CC[C@H](C)[C@H](NC(=O)[C@@H](NC(=O)[C@@H](NC(=O)CNC(=O)CNC(=O)[C@@H](NC(=O)C1(C)CCc2c(C)c(O)c(C)c(C)c2O1)C(C)C)C(C)C)C(C)C)C(=O)N[C@@H](C)C(=O)N[C@H](C(=O)O)[C@@H](C)O (stereo partly drawn) (Trolox-VGGVVIAT-OH)
- inhibition [1]: 17.3%
- Activity (SH-SY5Y [3]): Non-toxic
- Activity (SH-SY5Y [4]): inactive
- Activity (SH-SY5Y [5]): Active

Compound: Cc1c(C)c2c(c(C)c1O)CCC(C)(C(=O)NCC(=O)N[C@H](C(=O)N[C@H](C(=O)O)C(C)C)C(C)C)O2 (stereo partly drawn)
- inhibition [1]: inactive

Compound: CC[C@H](C)[C@H](NC(=O)[C@@H](NC(=O)C1(C)CCc2c(C)c(O)c(C)c(C)c2O1)C(C)C)C(=O)N[C@@H](C)C(=O)O (stereo partly drawn)
- inhibition [1]: 2.8%

Compound: CC[C@H](C)[C@H](NC(=O)[C@@H](NC(=O)C1(C)CCc2c(C)c(O)c(C)c(C)c2O1)C(C)C)C(=O)N[C@@H](C)C(=O)N[C@H](C(=O)O)[C@@H](C)O (stereo partly drawn) (Trolox-VIAT-OH)
- inhibition [1]: 6.6%

Compound: Cc1c(C)c2c(c(C)c1O)CCC(C)(C(=O)O)O2 (stereo not drawn) [TROLOX]
- inhibition (SH-SY5Y [6]): Active
- Activity (SH-SY5Y [7]): 23.6%

Compound: CC[C@H](C)[C@H](NC(=O)[C@@H](NC(=O)[C@@H](NC(=O)CNC(=O)CNC(=O)[C@@H](NC(=O)[C@H](CCSC)NC(=O)[C@H](CC(C)C)NC(=O)C1(C)CCc2c(C)c(O)c(C)c(C)c2O1)C(C)C)C(C)C)C(C)C)C(=O)N[C@@H](C)C(=O)O (stereo partly drawn)
- inhibition [1]: 39.5%

Compound: CC[C@H](C)[C@H](NC(=O)[C@@H](NC(=O)[C@@H](NC(=O)CNC(=O)C1(C)CCc2c(C)c(O)c(C)c(C)c2O1)C(C)C)C(C)C)C(=O)N[C@@H](C)C(=O)N[C@H](C(=O)O)[C@@H](C)O (stereo partly drawn) (Trolox-GVVIAT-OH)
- inhibition [1]: 5%

Compound: CC[C@H](C)[C@H](NC(=O)[C@@H](NC(=O)[C@@H](NC(=O)CNC(=O)CNC(=O)[C@@H](NC(=O)C1(C)CCc2c(C)c(O)c(C)c(C)c2O1)C(C)C)C(C)C)C(C)C)C(=O)N[C@@H](C)C(=O)O (stereo partly drawn) (Trolox-VGGVVIA-OH)
- Activity (SH-SY5Y [8]): Dose-dependent effect
- inhibition [1]: 17.7%
- Activity (SH-SY5Y [3]): Non-toxic
- Activity (SH-SY5Y [4]): Active
- inhibition (SH-SY5Y [6]): Active
- Activity (SH-SY5Y [7]): 37.6%
